Laboratory results reported in patent US4623662A, “Antiatherosclerotic ureas and thioureas” (American Cyanamid Company, priority 1985, dated 1986).
Like-named read-outs stand apart in the source and are kept apart here.

How the values were obtained:
[1] = biological target: T1, fatty acyl CoA: cholesterol acyl transferase (ACAT) (Rattus norvegicus, UniProt O70536); test: Inhibition of fatty acyl CoA:cholesterol acyl transferase (ACAT), rat adrenal enzyme; format: biochemical
T1 construct: The supernatant, containing the microsomal fraction, served as the source of the cholesterol-esterifying enzyme; from tissue; host or cells: rat adrenals, supernatant of 1,000 x g centrifugation containing the microsomal fraction
T1 sequence (O70536 1-545): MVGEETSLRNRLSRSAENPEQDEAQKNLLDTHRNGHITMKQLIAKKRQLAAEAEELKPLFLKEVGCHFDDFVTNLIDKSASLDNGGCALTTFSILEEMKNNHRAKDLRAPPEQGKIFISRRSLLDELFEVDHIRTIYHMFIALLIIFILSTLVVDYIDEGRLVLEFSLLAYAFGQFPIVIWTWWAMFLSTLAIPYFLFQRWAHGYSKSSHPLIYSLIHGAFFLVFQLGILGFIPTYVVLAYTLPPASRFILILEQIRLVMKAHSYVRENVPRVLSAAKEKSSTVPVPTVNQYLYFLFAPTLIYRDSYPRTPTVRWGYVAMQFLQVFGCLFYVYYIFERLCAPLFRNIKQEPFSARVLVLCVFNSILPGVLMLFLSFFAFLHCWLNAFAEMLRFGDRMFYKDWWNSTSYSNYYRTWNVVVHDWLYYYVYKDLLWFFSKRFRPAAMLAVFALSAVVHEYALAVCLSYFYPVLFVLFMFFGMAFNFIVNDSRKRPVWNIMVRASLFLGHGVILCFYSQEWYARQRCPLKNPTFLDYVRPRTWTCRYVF
Procedure: The compounds of the present invention were assayed for two types of biological activity related to their potential use as antiatherosclerotic agents. Compounds were tested in vitro for the ability to inhibit the enzyme fatty acyl CoA: cholesterol acyl transferase (ACAT) and in vivo for serum hypolipidemic activity as meausred by the ability to inhibit lipid absorption in rats.
The compounds were tested for their ability to inhibit ACAT according to the following procedure: rat adrenals were homogenized in 0.2M monobasic potassium phosphate buffer, pH 7.4, and centrifuged at 1,000 times gravity for 15 minutes at 5° C. The supernatant, containing the microsomal fraction, served as the source of the cholesterol-esterifying enzyme, fatty acyl CoA:cholesterol acyl transferase (ACAT). A mixture comprising 50 parts of adrenal supernatant, 10 parts of bovine serum albumin (50 mg/ml), 3 parts of test compound (final concentration 5.2 μg/ml), and 500 parts of buffer was preincubated at 37° C. for 10 minutes. After treatment with 20 parts of oleoyl CoA (^14 C-0.4 μCi), the mixture was incubated at 37° C. for 10 minutes. A control mixture, omitting the test compound, was prepared and treated in the same manner. The lipids from the incubation mixture was extracted into an organic solvent and separated by thin-layer chromatography. The cholesteryl ester fraction was counted in a scintillation counter. This procedure is a modification of that described by Hashimoto, et al., Life Scie., 12 (Part II), 1-12 (1973).
Compounds which produced statistically significant inhibition of the ACAT enzyme are considered to be active.
In addition to the above described test and the results given in terms of percent inhibition, various compounds of this invention were tested by the same procedure at several concentrations. The results of this test are given in Table II in terms of IC50 (μM), that concentration which produced 50% inhibition of the ACAT enzyme.

cholesterol absorption = test: Inhibition of cholesterol absorption in rats fed 1% cholesterol:0.5% cholic acid diet; format: in vivo, male Sprague-Dawley rats; conditions: po, 336 h, rat, 2 weeks; for response vs control in vivo at 0.01 %: dose .01% of the diet; for response vs control in vivo at 0.001 %: dose .001% of the diet; for response vs control in vivo at 0.003 %: dose .003% of the diet; for response vs control in vivo at 0.03 %: dose .03% of the diet
Procedure: Inhibition of cholesterol absorption was determined by feeding male Sprague-Dawley rats, weighing 150-170 g, a 1% cholesterol:0.5% cholic acid diet for 2 weeks. The diet also contained compounds being tested at a dose of 0.001, 0.003, 0.01, or 0.03% of the diet. Control rats were fed the same diet without any compound. At the end of the test, the rats were sacrificed by decapitation. Blood was collected, centrifuged at […] for 10 minutes at 4° C.; and the serum was then analyzed for cholesterol and triglycerides enzymatically by the method of Trinder, P., Analyst, 77, 321 (1952) on a Centrifichem 400 analyzer. Livers were removed, a 0.4 g sample was taken from the center of the large lobe, and the sample was subjected to saponification using 25% saturated potassium hydroxide in ethanol. The resulting neutral sterols were extracted with petroleum ether and the extract analyzed for cholesterol. The effectiveness of the compound in inhibiting cholesterol absorption was measured by the lowering of either serum cholesterol or liver cholesterol relative the values for control rats.
Compounds which produced statistically significant inhibition of cholesterol absorption are considered to be active. Liver sterol (LS) and serum sterol (SS) values are expressed as a percentage of control values.

[2] = read-out: LS (liver sterol), percentage of control values
[3] = read-out: SS (serum sterol), percentage of control values

Row | Molecule | response vs control in vivo at 0.001 % (cholesterol absorption; [2]) | response vs control in vivo at 0.001 % (cholesterol absorption; [3]) | response vs control in vivo at 0.003 % (cholesterol absorption; [2]) | response vs control in vivo at 0.003 % (cholesterol absorption; [3]) | also measured
1 | 1-[(4-Butylphenyl)methyl]-1-[6-[(methylsulfonyl)oxy]-hexyl]-3-[(2,4,5-trimethylphenyl)methyl]urea | – | – | – | – | % Inhibition ([1]; rat adrenal ACAT, final concentration 5.2 μg/ml): 90.0%
2 | CC(C)(C)CCN(Cc1ccc(Cl)cc1)C(=O)Nc1ccc(F)cc1F [1-(3,3-Dimethylbutyl)-1-(4-chlorobenzyl)-3-(2,4-difluorophenyl)urea] | – | – | – | – | inhibition at 5.2 µg/mL [1]: 90%
3 | CCCCCCCN(Cc1ccc(CC(C)CC)cc1)C(=O)Nc1ccc(F)cc1F (stereo not drawn) [1-(n-Heptyl)-1-[4-(2-methylbutyl)benzyl]-3-(2,4-difluorophenyl)urea] | – | – | – | – | response vs control in vivo at 0.01 % (cholesterol absorption; [2]): 42%; response vs control in vivo at 0.01 % (cholesterol absorption; [3]): 36%
4 | CCCCCCCN(Cc1ccc(CC(C)CCC)cc1)C(=O)Nc1c(F)cc(F)cc1F (stereo not drawn) [1-(n-Heptyl)-1-[4-(2-methylpentyl)benzyl]-3-(2,4,6-trifluorophenyl)urea] | 75% | 93% | – | – | –
5 | CCCCCCCN(Cc1ccc(CC(C)CCC)cc1)C(=O)Nc1ccc(F)cc1F (stereo not drawn) [1-(n-Heptyl)-1-[4-(2-methylpentyl)benzyl]-3-(2,4-difluorophenyl)urea] | – | – | 72% | 53% | –
6 | CCCCCCCN(Cc1ccc(CC(C)CCC)cc1)C(=O)Nc1c(C)cc(Cl)cc1C (stereo not drawn) [1-(n-Heptyl)-1-[4-(2-methylpentyl)benzyl]-3-(4-chloro-2,6-dimethylphenyl)urea] | 56% | 61% | – | – | –
7 | CCCCCCCN(Cc1ccc(OCCC(C)C)cc1)C(=O)Nc1ccc(F)cc1F [1-(n-Heptyl)-1-[4-(3-methylbutoxy)benzyl]-3-(2,4-difluorophenyl)urea] | – | – | – | – | response vs control in vivo at 0.01 % (cholesterol absorption; [2]): 32%; response vs control in vivo at 0.01 % (cholesterol absorption; [3]): 27%
8 | CCCCCCCN(Cc1ccc(CCC(C)CC)cc1)C(=O)Nc1c(F)cc(F)cc1F (stereo not drawn) [1-(n-Heptyl)-1-[4-(3-methylpentyl)benzyl]-3-(2,4,6-trifluorophenyl)urea] | – | – | 46% | 36% | –
9 | CCCCCCCN(Cc1ccc(CCC(C)CC)cc1)C(=O)Nc1ccc(F)cc1F (stereo not drawn) [1-(n-Heptyl)-1-[4-(3-methylpentyl)benzyl]-3-(2,4-difluorophenyl)urea] | 89% | 72% | – | – | –
10 | CCCCCCCN(Cc1ccc(CCC(C)CC)cc1)C(=O)Nc1c(C)cc(Cl)cc1C (stereo not drawn) [1-(n-Heptyl)-1-[4-(3-methylpentyl)benzyl]-3-(4-chloro-2,6-dimethylphenyl)urea] | – | – | 45% | 38% | –
11 | CCCCCCCN(Cc1ccc(CCCCSCC)cc1)C(=O)Nc1c(C)cc(Cl)cc1C [1-(n-Heptyl)-1-[4-(4-ethylthiobutyl)benzyl]-3-(4-chloro-2,6-dimethylphenyl)urea] | – | – | 63% | 57% | –
12 | CCCCCCCN(Cc1ccc(CCCCSC(C)C)cc1)C(=O)Nc1c(C)cc(Cl)cc1C [1-(n-Heptyl)-1-[4-(4-isopropylthiobutyl)benzyl]-3-(4-chloro-2,6-dimethylphenyl)urea] | – | – | – | – | response vs control in vivo at 0.01 % (cholesterol absorption; [2]): 45%; response vs control in vivo at 0.01 % (cholesterol absorption; [3]): 49%
13 | CCCCCCCN(Cc1ccc(CC2CCC2)cc1)C(=O)Nc1c(F)cc(F)cc1F [1-(n-Heptyl)-1-[4-(cyclobutylmethyl)benzyl]-3-(2,4,6-trifluorophenyl)urea] | 66% | 62% | – | – | –
14 | CCCCCCCN(Cc1ccc(CC2CCC2)cc1)C(=O)Nc1c(C)cc(Cl)cc1C [1-(n-Heptyl)-1-[4-(cyclobutylmethyl)benzyl]-3-(4-chloro-2,6-dimethylphenyl)urea] | 69% | 64% | – | – | –
15 | CCCCCCCN(Cc1ccc(C2CCCC2)cc1)C(=O)Nc1c(F)cc(F)cc1F [1-(n-Heptyl)-1-[4-(cyclopentyl)benzyl]-3-(2,4,6-trifluorophenyl)urea] | 58% | 69% | – | – | –
16 | CCCCCCCN(Cc1ccc(C2CCCC2)cc1)C(=O)Nc1ccc(F)cc1F [1-(n-Heptyl)-1-[4-(cyclopentyl)benzyl]-3-(2,4-difluorophenyl)urea] | – | – | 82% | 80% | –
17 | CCCCCCCN(Cc1ccc(C2CCCC2)cc1)C(=O)Nc1c(Cl)cc(Cl)cc1Cl [1-(n-Heptyl)-1-[4-(cyclopentyl)benzyl]-3-(4-chloro-2,6-dichlorophenyl)urea] | – | – | 36% | 35% | –
18 | CCCCCCCN(Cc1ccc(CC2CCCC2)cc1)C(=O)Nc1c(F)cc(F)cc1F [1-(n-Heptyl)-1-[4-(cyclopentylmethyl)benzyl]-3-(2,4,6-trifluorophenyl)urea] | – | – | 50% | 62% | –
19 | CCCCCCCN(Cc1ccc(CC2CCCC2)cc1)C(=O)Nc1c(C)cc(Cl)cc1C [1-(n-Heptyl)-1-[4-(cyclopentylmethyl)benzyl]-3-(4-chloro-2,6-dimethylphenyl)urea] | – | – | 53% | 45% | –
20 | CCCCCCCN(Cc1ccc(CCCC(C)C)cc1)C(=O)Nc1c(F)cc(F)cc1F [1-(n-Heptyl)-1-[4-(isohexyl)benzyl]-3-(2,4,6-trifluorophenyl)urea] | 78% | 77% | – | – | –
21 | CCCCCCCN(Cc1ccc(CCCC(C)C)cc1)C(=O)Nc1ccc(F)cc1F [1-(n-Heptyl)-1-[4-(isohexyl)benzyl]-3-(2,4-difluorophenyl)urea] | – | – | 53% | 45% | –
22 | CCCCCCCN(Cc1ccc(CCCC(C)C)cc1)C(=O)Nc1c(C)cc(Cl)cc1C [1-(n-Heptyl)-1-[4-(isohexyl)benzyl]-3-(4-chloro-2,6-dimethylphenyl)urea] | 73% | 64% | – | – | –
23 | CCCCCCCN(Cc1ccc(OCCC(C)C)cc1)C(=O)Nc1ccc(F)cc1F [1-(n-Heptyl)-1-[4-(isopentyloxy)benzyl]-3-(2,4-difluorophenyl)urea] | 61% | 69% | – | – | –
24 | CCCCCCCN(Cc1ccc(OCCC(C)C)cc1)C(=O)Nc1c(C)cc(Cl)cc1C [1-(n-Heptyl)-1-[4-(isopentyloxy)benzyl]-3-(4-chloro-2,6-dimethylphenyl)urea] | 23% | 25% | – | – | –
25 | CCCCCCCN(Cc1ccc(CCCC)cc1)C(=O)Nc1ccc(C(F)(F)F)cc1 [1-(n-Heptyl)-1-[4-(n-butyl)benzyl]-3-(4-trifluoromethylphenyl)urea] | – | – | – | – | response vs control in vivo at 0.03 % (cholesterol absorption; [2]): 88%; response vs control in vivo at 0.03 % (cholesterol absorption; [3]): 79%
